The record followed here is patent US6011052A, “Pyrazolone derivatives as MCP-1 antagonists” (Warner-Lambert Company, priority 1997, dated 2000).

For experiment [1], the system named is skin DHR sites. The experiment is described as follows: Histologic analysis of skin DHR sites in rats. The following applies: 15 mg/kg per os, compared to sensitized animals given vehicle alone. It is filed as in vivo, rat (Lewis). As to the method: Inbred, approximately 200 gm, male Lewis rats were used in all experiments. Cutaneous delayed hypersensitivity (DHR) was induced as previously described (1). Briefly, rats were sensitized to KLH (keyhole limpet hemocyanis) (Sigma Chemical Co., St. Louis, Mo.) by administering 50 μg KLH in 0.1 ml complete Freund's adjuvant (CFA; Sigma Chemical Co.) into each of 4 subcutaneous sites. After 14 days, DHR was elicited by the challenge of 5 μg KLH in PBS into multiple intradermal sites on the back. Analysis was performed 24 hours after antigen challenge. For each experiment, there were at least three groups of animals of at least four animals in each group. One group of nonsensitized, naive animals was used as a negative control and received vehicle alone (consisting of 0.5% hydroxypropylmethylcellulose/0.2% Tween 80 in water) per os at the time of challenge. As positive controls, one group of sensitized animals received vehicle alone per os at the time of KLH challenge. A third group consisted of sensitized animals that received compound suspended in vehicle per os at the time of KLH challenge.
For histologic analysis, representative skin specimens were fixed in 10% phosphate-buffered formalin, processed by routine histological techniques, cut at a thickness of […], and sections stained with hematoxylin and eosin.

The subject of experiment [2] is CD3-Blast (MCP-1 mediated chemotaxis). The experiment is described as follows: MCP-1 mediated CD3-Blast chemotaxis assay (transendothelial migration over ECV304 cells). Format: cell-based. The following applies: Homo sapiens, ECV-304; for inhibition at 10 µM: range given for multiple replications. As for the experimental part: Recombinant human MCP-1 was obtained from Peprotech (Rockey Hill, N.J.). […] RBCs were removed by hypotonic lysis. […] The cells are expanded and cultured for up to 3 weeks. […] The endothelial cells used for this assay were the endothelial cell line ECV304, obtained from the ECACE (Porton Downs, UK). Endothelial cells were cultured on 6.5 mm diameter Transwell culture inserts (Costar) with a […] pore size. […] Twenty four hours before the assay, 2×10^5 ECV304 cells were plated onto each innert of the 24 well chemotaxis plate and incubated at 37° C. MCP-1 (diluted in assay medium) with or without compounds, was added to the 24-well tissue culture plates in a final volume of […]. […] The cells that had migrated to the bottom chamber were enumerated using flow cytommetry. […] of the cell suspension from the lower chamber was placed in a tube, and relative cell counts were obtained by acquiring events for a set time period of 30 seconds. […] Background migration was determined by counting cells that migrated in the absence of MCP-1 in the lower chamber. This background migration of cells per 30 second count was substrated from the migration to MCP-1 to obtain specific migration. The percent inhibition by compounds of directed migration was determined by the following formula: 1 minus the specific migration in the presence of MCP-1 and compound, divided by the specific migration in the presence of just MCP-1. [drawing 13]

In experiment [3] the test system is rat T cells, skin DHR sites. The experiment is described as follows: T cell recruitment at sites of cutaneous delayed hypersensitivity (DHR) to KLH in rats. Format: in vivo, rat (Lewis). The following applies: 24 hours. As to the method:
Inbred, approximately 200 gm, male Lewis rats were used in all experiments. Cutaneous delayed hypersensitivity (DHR) was induced as previously described (1). Briefly, rats were sensitized to KLH (keyhole limpet hemocyanis) (Sigma Chemical Co., St. Louis, Mo.) by administering 50 μg KLH in 0.1 ml complete Freund's adjuvant (CFA; Sigma Chemical Co.) into each of 4 subcutaneous sites. After 14 days, DHR was elicited by the challenge of 5 μg KLH in PBS into multiple intradermal sites on the back. Analysis was performed 24 hours after antigen challenge. For each experiment, there were at least three groups of animals of at least four animals in each group. […]
T cell recruitment at sites of DHR was quantified using methods previously described (1-4). […] The cells in the effluent were highly purified (>95%) rat T cells as assessed by anti-rat CD3 (monoclonal antibody KT3, Biosource International, Camarillo, Calif.) immunoreactivity by flow cytometry. […] Skin challenge sites (8 mm in diameter) were counted on a γ counter 24 hours after injection of radiolabeled T cells. Lung, liver, and spleen were also collected and counted as comparative indices for evaluation of input.
Statistical significance was determined using a paired student's t-test. […]

Experiment [4] has as its target T1, MCP-1 receptor (Homo sapiens, UniProt P41597).
T1 construct: endogenous in cells; host or cells: THP-1 cells (ATCC TIB 202), selected for increased MCP-1 receptor expression
T1 sequence (P41597 1-360 isoform P41597-2): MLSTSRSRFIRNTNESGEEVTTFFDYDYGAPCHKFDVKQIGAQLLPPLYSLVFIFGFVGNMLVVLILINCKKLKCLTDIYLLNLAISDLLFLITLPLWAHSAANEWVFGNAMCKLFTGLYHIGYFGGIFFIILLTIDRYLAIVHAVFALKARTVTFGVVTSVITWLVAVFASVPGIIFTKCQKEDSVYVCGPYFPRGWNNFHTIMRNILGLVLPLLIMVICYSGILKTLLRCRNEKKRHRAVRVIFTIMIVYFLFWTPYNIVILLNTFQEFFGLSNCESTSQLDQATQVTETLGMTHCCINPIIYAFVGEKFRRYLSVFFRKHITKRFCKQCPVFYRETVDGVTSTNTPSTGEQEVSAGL
The experiment is described as follows: MCP-1 binding assay (125I-labeled MCP-1, THP-1 cell membranes). The settings on record: for IC50: THP-1 membranes, 0.2 nM 125I-MCP-1, 30 minutes at room temperature, read-out: Inhibition of MCP-1 Binding IC50; for inhibition at 10 µM: printed in the IC50 μM column, read-out: Inhibition of MCP-1 Binding, percent @ 10 μM. As for the experimental part:
Membranes used in the MCP-1 binding assay were prepared from THP-1 cells (human monocytic cell line source--American Type Culture Collection, Tumor Immunology Bank #202, Rockville, Md., accession no. ATCC TIB 202) selected for increased levels of expression of the MCP-1 receptor. Cells were harvested by centrifugation and washed twice in ice-cold PBS (phosphate-buffered saline) and the cell pellet was frozen at -80° C. in some cases. Cells were resuspended in ice-cold lysis buffer 5 mM HEPES (2-(4N-[2-hydroxyethyl] piperazin-1-yl)-N'-(2-ethanesulfonic acid), pH 7.5, 2 mM EDTA (ethylenediaminetetraacetic acid), 5 ug/ml each leupeptin, aprotinin, chymostatin (protease inhibitors), and 100 ug/ml PMSF (phenylmethane sulfonyl fluoride--also a protease inhibitor)) at a concentration of 5×10^7 cells/ml. The cell suspension was dounced 10-15 times using the B pestle (small pestle of tissue grinder--clearance is 0.07 mm; source--Fisher Scientific) on ice. Nuclei and debris were removed by centrifugation at 500-1000×g for 10 minutes at 4° C. The supernatant was transferred to a fresh tube and centrifuged at 25,000×g for 30 minutes at 4° C. The supernatant was aspirated and the pellet was resuspended in freezing buffer (10 mM HEPES, pH 7.5, 300 mM sucrose, 1 ug/ml each leupeptin, aprotinin, chymostatin, and 10 ug/ml PMSF) using a minihomogenizer until all clumps were resolved. Membranes were aliquoted and frozen at minus 70-85° C. until needed. Typical binding assays used 10-20 ug/well of total membrane protein as determined with a standard protein assay (e.g. BioRad, Richmond, Calif.) or: as determined with a Bradford protein assay (e.g. BioRad, Richmond, Calif.).
For binding, different amounts of membranes were included in the binding reaction along with 0.2 nM I^125 -labeled MCP-1 (Amersham, Arlington Heights, Ill.) with or without unlabeled cold competitor MCP-1 (Peprotech, Rocky Hill, N.J.) (at 500 nM). Binding reactions were performed in a final volume of 100 ul in a binding buffer containing 10 mM HEPES, pH 7.2, 1 mM CaCl2, 5 mM MgCl2, 0.5% BSA (bovine serum albumin). After 30 minutes at room temperature, the binding reactions were filtered through GF/C filters (Whatman glass fiber filters, Type C) or GF/B unifilter plates (Parkard) which had been pre-soaked with 0.3% poly ethyleneimine and washed twice with binding buffer containing 0.5 M NaCl. Filters were dried and counted in a Beta-Plate scintillation counter using standard scintillation fluid. Final concentration of compound in the binding assay ranged from 0.05-100 μM. Compounds were dissolved in DMSO (dimethyl sulfoxide). Final concentrations of DMSO in the binding were kept constant at 0.05%.
IC50s were calculated using a 3-parameter logistic fit. Negative control contained same amount of DMSO vehicle asused in wells containing compound. Positive control contained 500 nM cold competitor MCP-1 in DMSO vehicle.

Turning to `Nc1c(C2CCCCC2)[nH][nH]c1=O` [Example 1, 4-Amino 5-Cyclohexyl-3-Pyrazolone], in experiment [1], the “inflammatory activity of skin sites (histology)” value is “attenuated in inflammatory activity” and the “mononuclear cells infiltration in deep dermis (histology)” value is on record as “reduced mononuclear cells infiltration in deep dermis”. Moreover, the inhibition (as a rule, the relative decrease from the control value, in per cent) at 10 µM in experiment [2] fell in the range of 33 to 70%. Besides, in experiment [3] (15 mg/kg per os at the time of antigen challenge), the “statistical significance of inhibition of T cell recruitment in rat DHR” value is listed as “statistically significant inhibitory effect”. In experiment [3] (once per os at the time of antigen challenge, various doses (FIG. 3)), the “inhibition of recruitment of 111In-labeled rat T cells to skin DHR sites” value is on record as “inhibited the recruitment of ^III In-labeled rat T cells to skin DHR sites in a dose-dependent fashion”. Further, the IC50 (as a rule, the concentration needed to halve the response being measured) in experiment [4] came to 1.27 µM.

Regarding `Nc1c(-c2ccncc2)[nH][nH]c1=O` [Example 3], the inhibition at 10 µM was 5 to 49% in experiment [2] and 95% in experiment [4].

`Nc1c(-c2ccccc2)n[nH]c1O` [Example 4]: the inhibition at 10 µM in experiment [2] lay within 58 to 61%. Moreover, the IC50 in experiment [4] amounted to 0.73 µM. Take `Cn1[nH]c(=O)c(N)c1-c1ccccc1` [Example 5]: the figures for the inhibition at 10 µM in experiment [2] and in experiment [4] were -23 to 48% and 90%, respectively. Consider `COc1ccc(-c2[nH]nc(O)c2N)cc1` [Example 6], for which the IC50 in experiment [4] came out at 1.49 µM. Same read-out and setting: under `Nc1c[nH]nc1O` [Example 9] stands 1.65 µM.

Regarding `Cc1[nH][nH]c(=O)c1N` [Example 10], the inhibition at 10 µM in experiment [2] lay within 25 to 27%.

Regarding `Cc1c(N)c(=O)n(-c2ccccc2)n1C` [Example 13], in experiment [4], the IC50 turned out to be 2.27 µM. With `NC(=O)c1[nH]n(-c2ccc(Cl)cc2Cl)c(=O)c1N` [Example 19], the IC50 was 0.48 µM in experiment [2] (unit inferred, read-out: Inhibition of MCP-1 mediated chemotaxis of CD3-Blast, IC50) and 6.24 µM in experiment [4]. For the molecule `Oc1[nH]nc2c1NCCC2` [Example 37], in experiment [4], the IC50 turned out to be 5.64 µM.
